The record followed here is ChEMBL document CHEMBL5465560, “Selectivity Literature for EUbOPEN Chemogenomic Library” (2024).

Experiment [1] has as its target T1, Mitogen-activated protein kinase kinase kinase 19 (Homo sapiens) (UniProt Q56UN5).
T1 sequence (whole entry): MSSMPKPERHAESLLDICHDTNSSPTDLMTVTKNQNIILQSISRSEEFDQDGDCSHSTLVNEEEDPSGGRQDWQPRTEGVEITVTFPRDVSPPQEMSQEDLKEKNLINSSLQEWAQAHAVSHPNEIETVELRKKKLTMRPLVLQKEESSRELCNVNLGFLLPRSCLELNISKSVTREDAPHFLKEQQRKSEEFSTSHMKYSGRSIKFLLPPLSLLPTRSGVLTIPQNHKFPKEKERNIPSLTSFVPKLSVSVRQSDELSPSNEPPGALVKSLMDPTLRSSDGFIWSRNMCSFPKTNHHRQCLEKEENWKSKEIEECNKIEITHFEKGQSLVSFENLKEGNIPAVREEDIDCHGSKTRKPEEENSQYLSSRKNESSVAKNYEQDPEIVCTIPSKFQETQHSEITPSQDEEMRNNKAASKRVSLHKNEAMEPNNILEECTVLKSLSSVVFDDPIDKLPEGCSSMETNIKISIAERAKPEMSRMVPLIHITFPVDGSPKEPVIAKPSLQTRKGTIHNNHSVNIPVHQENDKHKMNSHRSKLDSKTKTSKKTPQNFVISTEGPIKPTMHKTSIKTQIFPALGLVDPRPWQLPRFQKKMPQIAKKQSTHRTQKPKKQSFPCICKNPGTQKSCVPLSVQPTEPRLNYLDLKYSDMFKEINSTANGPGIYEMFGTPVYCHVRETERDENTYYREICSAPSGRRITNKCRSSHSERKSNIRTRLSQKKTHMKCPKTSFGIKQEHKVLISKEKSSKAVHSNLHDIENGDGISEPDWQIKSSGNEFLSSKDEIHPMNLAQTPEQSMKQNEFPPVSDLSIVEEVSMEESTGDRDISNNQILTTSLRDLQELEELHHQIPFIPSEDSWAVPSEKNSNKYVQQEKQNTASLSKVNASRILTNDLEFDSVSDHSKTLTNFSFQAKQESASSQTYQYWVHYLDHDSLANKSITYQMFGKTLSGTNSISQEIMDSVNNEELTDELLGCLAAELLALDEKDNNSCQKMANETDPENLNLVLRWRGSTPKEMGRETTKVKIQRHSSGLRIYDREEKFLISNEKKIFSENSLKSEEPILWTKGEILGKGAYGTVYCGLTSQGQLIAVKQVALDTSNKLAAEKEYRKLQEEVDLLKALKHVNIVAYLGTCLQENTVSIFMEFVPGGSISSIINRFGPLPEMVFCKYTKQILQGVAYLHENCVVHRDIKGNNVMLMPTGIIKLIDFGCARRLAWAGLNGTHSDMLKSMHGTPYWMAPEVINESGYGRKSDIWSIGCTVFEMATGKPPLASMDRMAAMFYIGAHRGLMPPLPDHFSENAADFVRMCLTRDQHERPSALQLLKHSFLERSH
Nature of the experiment: Selectivity interaction (KinomeScan (DiscoverX)) EUB0000595a MAP3K19. The settings on record: at 10 µM.

The target in experiment [2] is Myosin light chain kinase 2, skeletal/cardiac muscle (Homo sapiens) (UniProt Q9H1R3). Nature of the experiment: Selectivity interaction (KinomeScan (DiscoverX)) EUB0001619a MYLK2. The settings on record: at 1 µM.
Experiment [3] concerns the target Serine/threonine-protein kinase 25 (Homo sapiens) (UniProt O00506). Nature of the experiment: Selectivity interaction (KinomeScan (DiscoverX)) EUB0000695a STK25. The settings on record: at 100 nM.
In experiment [4] the target is Maternal embryonic leucine zipper kinase (Homo sapiens) (UniProt Q14680). Nature of the experiment: Selectivity interaction (KinomeScan (DiscoverX)) EUB0000607a MELK. The settings on record: at 10 µM.
Experiment [5] addresses Mitogen-activated protein kinase kinase kinase 20 (Homo sapiens) (UniProt Q9NYL2). Nature of the experiment: Selectivity interaction (Kinase panel (Invitrogen)) EUB0000639a MAP3K20. The settings on record: at 200 nM.
Experiment [6] addresses Protein arginine N-methyltransferase 1 (Homo sapiens, UniProt Q99873). The note with it: at 1 µM.
The target of experiment [7] is Ribosomal protein S6 kinase alpha-6 (Homo sapiens, UniProt Q9UK32). Nature of the experiment: Selectivity interaction (KinomeScan (DiscoverX)) EUB0000311b RPS6KA6. The note with it: at 1 µM.
For experiment [8], the target named is T2, Phosphatidylinositol 4,5-bisphosphate 3-kinase catalytic subunit delta isoform (Homo sapiens) (UniProt O00329).
T2 sequence (whole entry): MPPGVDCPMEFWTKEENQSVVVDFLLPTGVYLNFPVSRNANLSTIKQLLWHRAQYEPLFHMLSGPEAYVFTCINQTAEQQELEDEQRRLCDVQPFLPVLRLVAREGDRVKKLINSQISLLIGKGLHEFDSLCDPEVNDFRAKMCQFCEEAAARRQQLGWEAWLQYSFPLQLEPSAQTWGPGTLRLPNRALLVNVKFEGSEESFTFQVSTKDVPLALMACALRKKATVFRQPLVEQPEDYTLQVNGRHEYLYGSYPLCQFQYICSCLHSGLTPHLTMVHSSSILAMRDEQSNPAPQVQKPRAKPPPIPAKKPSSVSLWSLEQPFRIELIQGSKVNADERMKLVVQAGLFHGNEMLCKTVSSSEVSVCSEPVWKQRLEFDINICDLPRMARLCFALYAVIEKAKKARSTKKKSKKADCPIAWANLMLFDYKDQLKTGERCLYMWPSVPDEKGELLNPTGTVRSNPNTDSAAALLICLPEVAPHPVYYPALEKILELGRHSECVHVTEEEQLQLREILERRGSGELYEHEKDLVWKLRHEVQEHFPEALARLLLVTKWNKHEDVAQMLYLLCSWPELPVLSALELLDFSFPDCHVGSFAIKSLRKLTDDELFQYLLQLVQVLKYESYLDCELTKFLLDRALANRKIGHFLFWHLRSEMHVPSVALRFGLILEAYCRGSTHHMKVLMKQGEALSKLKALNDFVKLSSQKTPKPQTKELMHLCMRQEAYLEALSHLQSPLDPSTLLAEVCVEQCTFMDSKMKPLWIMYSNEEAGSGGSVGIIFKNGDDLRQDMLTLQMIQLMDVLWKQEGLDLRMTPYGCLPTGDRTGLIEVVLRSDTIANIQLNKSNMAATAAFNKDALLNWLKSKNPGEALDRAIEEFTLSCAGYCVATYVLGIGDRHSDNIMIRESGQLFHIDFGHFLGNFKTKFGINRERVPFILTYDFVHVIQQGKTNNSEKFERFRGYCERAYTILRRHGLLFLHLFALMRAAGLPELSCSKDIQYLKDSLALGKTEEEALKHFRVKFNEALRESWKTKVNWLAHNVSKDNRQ
Nature of the experiment: Selectivity interaction (Ambit KINOMEscan and KiNATiv profiling in Jurkat cells) EUB0000090b PIK3CD. The experiment is classed as cell-based. The note with it: at 1 µM.

The target in experiment [9] is DNA (cytosine-5)-methyltransferase 1 (Homo sapiens) (UniProt P26358). Nature of the experiment: Selectivity interaction (Transferase panel (protein, RNA, and DNA methyltransferases. and EP300 (acetyltransferase))) EUB0000270b DNMT1.
The target in experiment [10] is Serine/threonine-protein kinase 10 (Homo sapiens) (UniProt O94804). Nature of the experiment: Selectivity interaction (KinomeScan (DiscoverX)) EUB0000618a STK10. The note with it: at 10 µM.
Chain of Serine/threonine-protein kinase 10 (Homo sapiens) (O94804 whole entry, looked up): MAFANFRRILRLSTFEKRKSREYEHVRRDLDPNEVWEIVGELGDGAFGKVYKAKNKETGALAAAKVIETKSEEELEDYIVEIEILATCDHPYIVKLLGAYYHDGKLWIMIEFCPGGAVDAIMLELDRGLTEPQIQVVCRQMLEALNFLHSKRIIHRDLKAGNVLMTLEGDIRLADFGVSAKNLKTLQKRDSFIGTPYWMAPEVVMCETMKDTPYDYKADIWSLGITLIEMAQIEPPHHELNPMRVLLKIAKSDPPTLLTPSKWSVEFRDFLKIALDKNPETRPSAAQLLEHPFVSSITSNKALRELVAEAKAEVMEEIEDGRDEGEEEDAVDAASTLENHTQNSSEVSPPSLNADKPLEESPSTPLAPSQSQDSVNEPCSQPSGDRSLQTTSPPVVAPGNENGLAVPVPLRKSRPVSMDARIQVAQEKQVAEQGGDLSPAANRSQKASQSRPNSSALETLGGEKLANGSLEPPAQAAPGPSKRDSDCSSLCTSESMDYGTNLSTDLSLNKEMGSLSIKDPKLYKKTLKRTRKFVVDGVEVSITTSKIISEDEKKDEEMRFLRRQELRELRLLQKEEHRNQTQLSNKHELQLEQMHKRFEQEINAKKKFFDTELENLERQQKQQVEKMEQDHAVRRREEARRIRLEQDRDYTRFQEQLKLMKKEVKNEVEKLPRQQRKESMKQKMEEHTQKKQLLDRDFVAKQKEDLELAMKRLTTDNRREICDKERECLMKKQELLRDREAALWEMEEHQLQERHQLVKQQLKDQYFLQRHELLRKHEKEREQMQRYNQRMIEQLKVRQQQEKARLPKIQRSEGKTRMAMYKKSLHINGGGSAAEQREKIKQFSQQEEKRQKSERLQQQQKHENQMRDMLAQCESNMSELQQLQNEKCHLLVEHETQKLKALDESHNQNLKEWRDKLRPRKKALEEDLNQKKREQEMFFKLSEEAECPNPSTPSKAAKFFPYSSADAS

Chain of DNA (cytosine-5)-methyltransferase 1 (Homo sapiens) (P26358 whole entry): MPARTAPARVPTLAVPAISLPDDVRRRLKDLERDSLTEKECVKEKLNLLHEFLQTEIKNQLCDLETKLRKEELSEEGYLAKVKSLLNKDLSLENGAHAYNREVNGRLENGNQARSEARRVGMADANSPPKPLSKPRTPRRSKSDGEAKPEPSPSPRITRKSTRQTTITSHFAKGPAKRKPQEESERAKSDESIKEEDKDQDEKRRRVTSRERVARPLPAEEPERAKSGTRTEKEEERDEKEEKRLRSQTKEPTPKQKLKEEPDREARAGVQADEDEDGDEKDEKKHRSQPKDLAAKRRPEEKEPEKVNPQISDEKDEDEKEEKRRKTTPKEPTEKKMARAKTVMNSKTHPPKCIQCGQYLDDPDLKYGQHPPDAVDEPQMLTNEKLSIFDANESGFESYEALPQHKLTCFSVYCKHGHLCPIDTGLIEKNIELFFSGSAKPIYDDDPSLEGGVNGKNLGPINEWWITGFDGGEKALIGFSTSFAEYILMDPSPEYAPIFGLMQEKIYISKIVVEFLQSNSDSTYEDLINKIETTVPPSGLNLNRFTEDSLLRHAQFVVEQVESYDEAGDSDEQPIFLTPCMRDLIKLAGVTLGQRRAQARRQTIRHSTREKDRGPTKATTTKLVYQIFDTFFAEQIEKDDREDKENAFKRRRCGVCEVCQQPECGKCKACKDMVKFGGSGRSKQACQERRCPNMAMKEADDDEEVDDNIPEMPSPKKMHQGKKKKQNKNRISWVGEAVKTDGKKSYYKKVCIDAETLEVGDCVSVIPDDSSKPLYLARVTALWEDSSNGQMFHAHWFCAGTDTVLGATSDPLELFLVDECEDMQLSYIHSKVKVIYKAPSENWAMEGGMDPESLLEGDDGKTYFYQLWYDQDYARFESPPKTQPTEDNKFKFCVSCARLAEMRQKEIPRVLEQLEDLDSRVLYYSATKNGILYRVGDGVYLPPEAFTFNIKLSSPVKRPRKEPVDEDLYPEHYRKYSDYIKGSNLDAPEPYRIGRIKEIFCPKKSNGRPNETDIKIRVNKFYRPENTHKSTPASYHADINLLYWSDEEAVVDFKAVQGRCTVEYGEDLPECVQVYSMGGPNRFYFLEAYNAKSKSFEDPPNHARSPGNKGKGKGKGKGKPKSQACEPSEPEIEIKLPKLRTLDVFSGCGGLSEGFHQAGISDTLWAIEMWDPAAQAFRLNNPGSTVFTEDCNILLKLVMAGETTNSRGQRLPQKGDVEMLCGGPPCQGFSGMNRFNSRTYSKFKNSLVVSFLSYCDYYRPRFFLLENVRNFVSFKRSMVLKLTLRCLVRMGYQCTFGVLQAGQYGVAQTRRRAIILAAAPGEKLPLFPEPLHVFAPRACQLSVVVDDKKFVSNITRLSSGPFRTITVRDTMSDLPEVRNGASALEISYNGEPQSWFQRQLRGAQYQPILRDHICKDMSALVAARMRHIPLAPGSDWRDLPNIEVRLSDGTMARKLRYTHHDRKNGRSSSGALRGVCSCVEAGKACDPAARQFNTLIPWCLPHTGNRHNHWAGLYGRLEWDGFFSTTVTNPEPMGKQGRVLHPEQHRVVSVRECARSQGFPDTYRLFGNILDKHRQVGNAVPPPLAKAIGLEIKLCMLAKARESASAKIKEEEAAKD
Chain of Mitogen-activated protein kinase kinase kinase 20 (Homo sapiens) (Q9NYL2 2-800 limits assumed): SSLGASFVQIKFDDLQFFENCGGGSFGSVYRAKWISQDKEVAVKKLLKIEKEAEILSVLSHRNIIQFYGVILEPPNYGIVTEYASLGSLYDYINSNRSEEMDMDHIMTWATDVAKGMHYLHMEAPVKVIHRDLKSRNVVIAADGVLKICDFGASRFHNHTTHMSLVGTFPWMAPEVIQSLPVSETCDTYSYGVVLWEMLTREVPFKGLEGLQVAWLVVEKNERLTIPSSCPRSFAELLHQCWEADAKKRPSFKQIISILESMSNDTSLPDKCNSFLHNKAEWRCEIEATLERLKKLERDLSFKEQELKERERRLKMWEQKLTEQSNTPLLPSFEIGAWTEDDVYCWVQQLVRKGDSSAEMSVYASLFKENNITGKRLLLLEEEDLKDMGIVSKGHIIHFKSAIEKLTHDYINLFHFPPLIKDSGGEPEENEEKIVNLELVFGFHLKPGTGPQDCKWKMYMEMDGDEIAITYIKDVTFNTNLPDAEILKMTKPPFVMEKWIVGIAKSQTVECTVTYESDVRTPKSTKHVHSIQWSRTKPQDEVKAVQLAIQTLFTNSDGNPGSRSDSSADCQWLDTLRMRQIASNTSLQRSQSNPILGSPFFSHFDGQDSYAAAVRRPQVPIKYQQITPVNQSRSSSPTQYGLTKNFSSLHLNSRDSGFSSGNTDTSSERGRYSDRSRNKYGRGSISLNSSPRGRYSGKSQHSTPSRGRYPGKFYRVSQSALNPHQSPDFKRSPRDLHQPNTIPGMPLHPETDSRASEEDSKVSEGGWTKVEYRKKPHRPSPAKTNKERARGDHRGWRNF
Chain of Maternal embryonic leucine zipper kinase (Homo sapiens) (Q14680 whole entry, looked up): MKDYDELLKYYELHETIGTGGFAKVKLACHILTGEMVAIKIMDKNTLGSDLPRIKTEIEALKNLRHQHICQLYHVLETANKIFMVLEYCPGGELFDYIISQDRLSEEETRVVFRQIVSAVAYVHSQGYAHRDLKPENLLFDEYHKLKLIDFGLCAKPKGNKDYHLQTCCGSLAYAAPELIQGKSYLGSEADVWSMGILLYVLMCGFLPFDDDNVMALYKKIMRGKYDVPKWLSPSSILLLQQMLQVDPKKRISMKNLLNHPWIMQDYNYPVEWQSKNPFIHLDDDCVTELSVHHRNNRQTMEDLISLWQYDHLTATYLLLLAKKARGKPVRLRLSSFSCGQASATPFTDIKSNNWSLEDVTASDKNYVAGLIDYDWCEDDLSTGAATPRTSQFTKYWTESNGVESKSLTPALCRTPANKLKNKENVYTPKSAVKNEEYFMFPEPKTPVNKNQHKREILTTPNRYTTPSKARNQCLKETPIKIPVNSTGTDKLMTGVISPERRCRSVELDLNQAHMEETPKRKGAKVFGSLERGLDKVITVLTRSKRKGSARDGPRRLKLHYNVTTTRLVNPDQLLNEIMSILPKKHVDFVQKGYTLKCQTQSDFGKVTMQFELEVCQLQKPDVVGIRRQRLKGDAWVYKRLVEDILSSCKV
Chain of Ribosomal protein S6 kinase alpha-6 (Q9UK32 whole entry, canonical isoform): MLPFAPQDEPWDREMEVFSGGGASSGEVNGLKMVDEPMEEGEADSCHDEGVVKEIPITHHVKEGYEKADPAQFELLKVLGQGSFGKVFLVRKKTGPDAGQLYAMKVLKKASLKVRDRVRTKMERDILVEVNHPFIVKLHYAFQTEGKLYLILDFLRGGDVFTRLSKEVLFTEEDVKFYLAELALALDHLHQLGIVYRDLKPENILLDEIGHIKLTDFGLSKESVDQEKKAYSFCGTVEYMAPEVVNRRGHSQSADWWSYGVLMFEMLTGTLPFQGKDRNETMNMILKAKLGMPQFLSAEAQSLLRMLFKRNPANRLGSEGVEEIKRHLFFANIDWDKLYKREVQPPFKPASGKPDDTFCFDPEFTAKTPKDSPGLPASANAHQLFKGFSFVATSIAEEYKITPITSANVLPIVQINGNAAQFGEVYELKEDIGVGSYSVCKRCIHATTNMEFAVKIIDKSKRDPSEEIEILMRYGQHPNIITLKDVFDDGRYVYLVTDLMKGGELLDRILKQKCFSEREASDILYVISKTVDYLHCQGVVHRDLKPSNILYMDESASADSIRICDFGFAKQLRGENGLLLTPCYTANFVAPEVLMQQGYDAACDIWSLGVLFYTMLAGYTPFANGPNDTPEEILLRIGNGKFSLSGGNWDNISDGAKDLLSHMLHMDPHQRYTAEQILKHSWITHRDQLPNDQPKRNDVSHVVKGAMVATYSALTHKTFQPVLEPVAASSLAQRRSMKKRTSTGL

`COCC(=O)NC/C=C/c1ccc2ncnc(Nc3ccc(Oc4ccc(C)nc4)c(C)c3)c2c1` [CP-724714] registered a % of control in experiment [1] of 100%.

Take `N#Cc1cccc(-c2c[nH]c3ncnc(N4CCOCC4)c23)c1`: the % of control in [2] amounted to 92%.

Take `Cc1cc(F)c(C(=O)Nc2cccc(-c3nncn3C(C)C)n2)cc1-n1cnc(C2CC2)c1`: the % of control in experiment [3] was found to be 100%.

Take `CNC(=O)Nc1ccc(-c2nc(N3CC4CCC(C3)O4)c3cnn(C4CCC5(CC4)OCCO5)c3n2)cc1`: the % of control in experiment [4] was found to be 92%.

Regarding `CC[C@@H]1[C@H](F)C(=O)N[C@@H]1COc1nccc2cc(C(N)=O)c(OC)cc12` [ZIMLOVISERTIB], in experiment [5], the % of inhibition is 1.12%.

With `CNCCN1CCC(c2cc(CN(C)C(=O)c3cccc(Oc4ccccc4)c3)ccn2)CC1`, the % activity in [6] is over 90%.

In turn, `CCc1ccccc1C(=O)Nc1n[nH]c2c(C)c(F)c(C3C(C#N)=C(C)N(C)C(C)=C3C#N)cc12` [BAY-3827] registered a % of control in experiment [7] of 2.9%.

Take `CN(C)C/C=C/C(=O)Nc1ccc(C(=O)N2CCCC(Nc3ncc(Cl)c(-c4c[nH]c5ccccc45)n3)C2)cc1` (stereo unspecified): the % of control in experiment [8] was found to be 100%.

For the compound `Cc1cc(CN)cc(C)c1-c1ncn(C)c1-c1cncn1C`, the % activity in experiment [9] (at 1 µM) was over 90%; in [9] (at 10 µM), over 80%.

As for `O[C@H]1CC[C@H](Nc2ncc3nc(Nc4c(F)cc(F)cc4F)n([C@H]4CCOC4)c3n2)CC1`, the % of control in experiment [10] turned out to be 97%.
